# Results from patent EP4596574A1, “GLP-1/GCG/GIP TRIPLE-RECEPTOR AGONIST AND USE THEREOF” (Sunshine Lake Pharma Co., Ltd., priority 2022, dated 2024).
# Starred links: 1 amine or outer side, 2 acyl side, 3 side chain; linkers in the order of their positions; H or OH if unused. Non-standard residues stand in square brackets, D forms with d. Residues, ends and D or L forms follow the SMILES beside them. Groups on a side chain read outwards from the residue. *: point of attachment. C20 diacid = O=C(O)CCCCCCCCCCCCCCCCCCC(=O)*; αMePhe(2-F) = C[C@](N)(Cc1ccccc1F)C(=O)O; γGlu = O=C(O)[C@H](CCC(=O)[*:2])N[*:1]; AEEA = NCCOCCOCC(=O)O; Aib = CC(C)(N)C(=O)O
# Columns and labels:
# Assay type in all cases: cell-based
# GCGR = target: T1, GCGR (Homo sapiens, UniProt P47871); assay: In vitro cell activity, cAMP production in HEK293 cells expressing GCGR; conditions: HEK293-GCGR cells, cAMP; read-out: GCGR (EC50)
# T1 construct: expressed in transfected cells; host or cells: HEK293 (HEK293-GCGR)
# T1 sequence (P47871 26-477, species assumed): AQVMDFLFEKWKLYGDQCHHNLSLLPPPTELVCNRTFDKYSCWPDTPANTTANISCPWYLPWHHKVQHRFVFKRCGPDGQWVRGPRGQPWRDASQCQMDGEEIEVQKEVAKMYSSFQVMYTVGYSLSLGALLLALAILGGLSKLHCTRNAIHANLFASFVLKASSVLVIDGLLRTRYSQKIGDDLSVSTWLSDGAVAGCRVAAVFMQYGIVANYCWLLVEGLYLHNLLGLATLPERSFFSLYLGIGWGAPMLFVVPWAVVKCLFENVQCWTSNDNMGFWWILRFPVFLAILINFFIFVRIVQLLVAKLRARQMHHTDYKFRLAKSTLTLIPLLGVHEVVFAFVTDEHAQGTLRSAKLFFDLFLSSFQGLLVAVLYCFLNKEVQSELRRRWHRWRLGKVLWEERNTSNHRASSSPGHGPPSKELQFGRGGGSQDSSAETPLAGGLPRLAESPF
# In short: (§1)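 HEK293 transfectants, 4×10^5 cells/mL, 384-well. Detection: cAMP-d2 + anti-cAMP cryptate 1:1, RT 1 h dark or 4 °C o/n. Read 665/620 nm; 4-parameter nonlinear fit → EC50.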
# GIPR = target: T2, GIPR (Homo sapiens, UniProt P48546); assay: In vitro cell activity, cAMP production in HEK293 cells expressing GIPR; conditions: HEK293-GIPR cells, cAMP; read-out: GIPR (EC50)
# T2 construct: expressed in transfected cells; host or cells: HEK293 (HEK293-GIPR)
# T2 sequence (P48546 22-466): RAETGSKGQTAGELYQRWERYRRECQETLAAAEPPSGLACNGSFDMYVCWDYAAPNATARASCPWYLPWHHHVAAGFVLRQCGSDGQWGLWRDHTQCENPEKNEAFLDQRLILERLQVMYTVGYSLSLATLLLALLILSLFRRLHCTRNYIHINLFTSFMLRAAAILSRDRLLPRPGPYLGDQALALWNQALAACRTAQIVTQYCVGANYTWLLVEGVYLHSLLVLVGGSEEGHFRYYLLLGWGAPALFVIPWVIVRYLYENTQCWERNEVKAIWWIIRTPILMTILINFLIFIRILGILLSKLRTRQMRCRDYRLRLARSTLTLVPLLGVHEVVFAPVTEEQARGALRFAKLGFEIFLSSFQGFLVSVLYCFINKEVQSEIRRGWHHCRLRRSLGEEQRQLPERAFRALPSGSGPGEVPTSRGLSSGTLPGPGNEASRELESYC
# In short: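 HEK293 cells expressing human GIPR, thawed and diluted to 4×10^5 cells/mL, are stimulated with test compound. cAMP is measured by HTRF competition between cAMP-d2 and anti-cAMP cryptate. EC50 comes from a four-parameter nonlinear fit of signal ratio against concentration.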
# GLP-1R = target: T3, GLP-1R (Homo sapiens, UniProt P43220); assay: In vitro cell activity, cAMP production in HEK293 cells expressing GLP-1R; conditions: HEK293-GLP-1R cells, cAMP; read-out: GLP-1R (EC50)
# T3 construct: expressed in transfected cells; host or cells: HEK293 (HEK293-GLP-1R)
# T3 sequence (P43220 24-463, species assumed): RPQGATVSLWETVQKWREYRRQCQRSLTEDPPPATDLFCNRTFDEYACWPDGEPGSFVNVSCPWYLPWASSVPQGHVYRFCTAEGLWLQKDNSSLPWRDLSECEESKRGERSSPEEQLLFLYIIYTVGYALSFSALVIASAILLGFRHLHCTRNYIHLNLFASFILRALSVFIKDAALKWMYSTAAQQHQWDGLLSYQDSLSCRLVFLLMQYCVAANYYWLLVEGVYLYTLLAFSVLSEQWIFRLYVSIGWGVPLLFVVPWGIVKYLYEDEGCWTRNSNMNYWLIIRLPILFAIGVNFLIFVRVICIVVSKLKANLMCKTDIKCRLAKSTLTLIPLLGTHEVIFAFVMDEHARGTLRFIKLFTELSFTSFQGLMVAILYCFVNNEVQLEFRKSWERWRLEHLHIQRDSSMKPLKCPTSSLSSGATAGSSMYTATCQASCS
# In short: as §1
Structure (SMILES),EC50 (GCGR),EC50 (GIPR),EC50 (GLP-1R)
CC[C@H](C)[C@H](NC(=O)[C@H](Cc1ccccc1)NC(=O)[C@H](C)NC(=O)[C@H](CCCNC(=N)N)NC(=O)[C@H](CCC(N)=O)NC(=O)[C@H](CCCNC(=N)N)NC(=O)[C@H](CCCCNC(=O)COCCOCCNC(=O)CC[C@H](NC(=O)CCCCCCCCCCCCCCCCC(=O)O)C(=O)O)NC(=O)[C@H](CCC(=O)O)NC(=O)[C@H](CC(=O)O)NC(=O)[C@H](CC(C)C)NC(=O)[C@H](CC(C)C)NC(=O)[C@@H](NC(=O)[C@H](CO)NC(=O)[C@H](Cc1ccc(O)cc1)NC(=O)[C@H](CC(=O)O)NC(=O)[C@H](CO)NC(=O)[C@@H](NC(=O)[C@](C)(Cc1ccccc1F)NC(=O)[C@@H](NC(=O)CNC(=O)[C@H](CCC(N)=O)NC(=O)C(C)(C)NC(=O)[C@@H](N)Cc1ccc(O)cc1)[C@@H](C)O)[C@@H](C)O)[C@@H](C)CC)C(=O)N[C@@H](CCC(=O)O)C(=O)N[C@@H](Cc1ccc(O)cc1)C(=O)N[C@@H](CC(C)C)C(=O)N[C@@H](CC(C)C)C(=O)N[C@@H](C)C(=O)NCC(=O)NCC(=O)N1CCC[C@H]1C(=O)N[C@@H](CO)C(=O)N[C@@H](CO)C(=O)NCC(=O)N[C@@H](C)C(=O)N1CCC[C@H]1C(=O)N1CCC[C@H]1C(=O)N1CCC[C@H]1C(=O)N[C@@H](CO)C(=O)O [HEC-PT134],0.862 nM,0.207 nM,0.146 nM
CC[C@H](C)[C@H](NC(=O)[C@H](Cc1ccccc1)NC(=O)[C@H](C)NC(=O)[C@H](CCCCN)NC(=O)[C@H](CCC(N)=O)NC(=O)[C@H](CCCCN)NC(=O)[C@H](CCCCNC(=O)COCCOCCNC(=O)CC[C@H](NC(=O)CCCCCCCCCCCCCCCCCCC(=O)O)C(=O)O)NC(=O)[C@H](CCC(=O)O)NC(=O)[C@H](CC(=O)O)NC(=O)[C@H](CC(C)C)NC(=O)[C@H](CC(C)C)NC(=O)[C@@H](NC(=O)[C@H](CO)NC(=O)[C@H](Cc1ccc(O)cc1)NC(=O)[C@H](CC(=O)O)NC(=O)[C@H](CO)NC(=O)[C@@H](NC(=O)[C@](C)(Cc1ccccc1F)NC(=O)[C@@H](NC(=O)CNC(=O)[C@H](CCC(N)=O)NC(=O)C(C)(C)NC(=O)[C@@H](N)Cc1ccc(O)cc1)[C@@H](C)O)[C@@H](C)O)[C@@H](C)CC)C(=O)N[C@@H](CCC(=O)O)C(=O)N[C@@H](Cc1ccc(O)cc1)C(=O)N[C@@H](CC(C)C)C(=O)N[C@@H](CC(C)C)C(=O)N[C@@H](C)C(=O)NCC(=O)NCC(=O)N1CCC[C@H]1C(=O)N[C@@H](CO)C(=O)N[C@@H](CO)C(=O)NCC(=O)N[C@@H](C)C(=O)N1CCC[C@H]1C(=O)N1CCC[C@H]1C(=O)N1CCC[C@H]1C(=O)N[C@@H](CO)C(N)=O [HEC-PT131],8.07 nM,1.13 nM,0.249 nM
CC[C@H](C)[C@H](NC(=O)[C@H](CC(C)C)NC(=O)[C@H](Cc1c[nH]c2ccccc12)NC(=O)[C@H](CCC(=O)O)NC(=O)[C@@H](NC(=O)[C@H](Cc1ccccc1)NC(=O)[C@H](CCC(=O)O)NC(=O)[C@H](CCCCNC(=O)COCCOCCNC(=O)COCCOCCNC(=O)CC[C@H](NC(=O)CCCCCCCCCCCCCCCCCCC(=O)O)C(=O)O)NC(=O)[C@H](C)NC(=O)[C@H](C)NC(=O)[C@H](CCCNC(=N)N)NC(=O)[C@H](CCC(=O)O)NC(=O)[C@H](CC(=O)O)NC(=O)[C@H](CC(C)C)NC(=O)[C@H](CC(C)C)NC(=O)[C@@H](NC(=O)[C@H](CO)NC(=O)[C@H](Cc1ccc(O)cc1)NC(=O)[C@H](CC(=O)O)NC(=O)[C@H](CO)NC(=O)[C@@H](NC(=O)[C@](C)(Cc1ccccc1F)NC(=O)[C@@H](NC(=O)CNC(=O)[C@H](CCC(N)=O)NC(=O)C(C)(C)NC(=O)[C@@H](N)Cc1ccc(O)cc1)[C@@H](C)O)[C@@H](C)O)[C@@H](C)CC)[C@@H](C)CC)C(=O)N[C@@H](C)C(=O)NCC(=O)NCC(=O)N1CCC[C@H]1C(=O)N[C@@H](CO)C(=O)N[C@@H](CO)C(=O)NCC(=O)N[C@@H](C)C(=O)N1CCC[C@H]1C(=O)N1CCC[C@H]1C(=O)N1CCC[C@H]1C(=O)N[C@@H](CO)C(=O)O [HEC-PT71] (H-Y[Aib]QGT[αMePhe(2-F)]TSDYSILLDERAAK([AEEA-AEEA-γGlu-C20 diacid])EFIEWLIAGGPSSGAPPPS-OH),5.39 nM,0.464 nM,0.336 nM
